In ChEMBL document CHEMBL3045215, “Synthesis and insecticidal activity of 3,4-dihydropyrimidine-2(1H)-thiones against the pulse beetle, Callosobruchus chinensis” (2011):

Columns and labels:
Callosobruchus chinensis [1] = assay: Insecticidal activity against Callosobruchus chinensis adults reared on green gram assessed as insect mortality after 24 hr; format: functional
Callosobruchus chinensis [2] = assay: Insecticidal activity against Callosobruchus chinensis adults reared on green gram assessed as insect mortality at 1000 mg/L after 24 hr; format: functional

Row | Compound | LC50 (Callosobruchus chinensis [1]) [mg/cm2] | mortality at 1000 µg/mL (Callosobruchus chinensis [2]) [%]
1 | SC1=NC(c2ccccc2)=CC(c2ccccc2)N1 (configuration not stated) | 0.00795 | 75
2 | COc1ccc(C2=CC(c3ccc(OC)cc3)NC(=S)N2)cc1 (configuration not stated) |  | 70
3 | S=C1NC(c2ccc(Cl)cc2)=CC(c2ccccc2)N1 (configuration not stated) | 0.00556 | 78
4 | Cc1ccc(C2=CC(c3ccccc3)NC(=S)N2)cc1 (configuration not stated) |  | 66
5 | COc1ccc(C2=CC(c3ccccc3)NC(=S)N2)cc1 (configuration not stated) |  | 68
6 | Fc1ccc(C2C=C(c3ccccc3)NC(=S)N2)cc1 (configuration not stated) |  | 60
7 | Fc1ccc(C2C=C(c3ccc(Cl)cc3)NC(=S)N2)cc1 (configuration not stated) | 0.00461 | 75
8 | Cc1ccc(C2=CC(c3ccc(F)cc3)NC(=S)N2)cc1 (configuration not stated) |  | 68
9 | COc1ccc(C2=CC(c3ccc(F)cc3)NC(=S)N2)cc1 (configuration not stated) | 0.00304 | 86
10 | S=C1NC(c2ccccc2)=CC(c2ccc(Cl)cc2)N1 (configuration not stated) | 0.00289 | 90
11 | S=C1NC(c2ccc(Cl)cc2)=CC(c2ccc(Cl)cc2)N1 (configuration not stated) |  | 69
12 | Cc1ccc(C2=CC(c3ccc(Cl)cc3)NC(=S)N2)cc1 (configuration not stated) | 0.01227 | 93
13 | COc1ccc(C2=CC(c3ccc(Cl)cc3)NC(=S)N2)cc1 (configuration not stated) | 0.00175 | 82
14 | S=C1NC(c2ccccc2)=CC(c2ccccc2Cl)N1 (configuration not stated) | 0.00201 | 78
15 | S=C1NC(c2ccc(Cl)cc2)=CC(c2ccccc2Cl)N1 (configuration not stated) | 0.00524 | 85
16 | Cc1ccc(C2=CC(c3ccccc3Cl)NC(=S)N2)cc1 (configuration not stated) | 0.00122 | 87
17 | COc1ccc(C2=CC(c3ccccc3Cl)NC(=S)N2)cc1 (configuration not stated) |  | 68
18 | COc1ccc(C2C=C(c3ccccc3)NC(=S)N2)cc1 (configuration not stated) | 0.00164 | 60
19 | COc1ccc(C2C=C(c3ccc(Cl)cc3)NC(=S)N2)cc1 (configuration not stated) |  | 40
20 | COc1ccc(C2C=C(c3ccc(C)cc3)NC(=S)N2)cc1 (configuration not stated) |  | 80
21 | COP(=O)(OC)OC=C(Cl)Cl [DICHLORVOS] | 0.00243 | 
